# Experimental data: patent US20020099206A1, “Cephalosporin crystals and process for their preparation” (priority 1997, published 2002)
# Test: stability of Compound (1a) under crystallization conditions (Comparative Test Examples 1 and 2)
# Format: physicochemical
# Description: Subsequently, stability of Compound (1a) under crystallization conditions was tested. The results are shown in the following Comparative Test Examples 1 and 2.
# 200 mg of oily 7-phenylacetamido-3-chloromethyl-cephem-4-carboxylic acid p-methoxybenzyl ester was dissolved in 0.2 ml of dimethylformamide. The solution was pored into 1 ml of methanol precooled to 3° C. to precipitate crystals. The mixture was stirred at 3 to 5° C. for 20 hours. Then, an ethyl acetate/water mixture was added to dissolve the crystals, and the solution was subjected to extraction. The organic layer was dried over sodium sulfate. The resulting solution was filtered, and the filtrate was concentrated under reduced pressure. The concentrate was purified by silica gel chromatography (Wako gel C-200, benzene/ethyl acetate=4/1), giving 197 mg of oily 7-phenylacetamido-3-chloromethyl-cephem-4-carboxylic-acid-p-methoxybenzyl ester (yield: 99%).
# 200 mg of oily 7-phenylacetamido-3-chloromethyl-cephem-4-carboxylic acid p-methoxybenzyl ester was dissolved in 0.2 ml of dimethylformamide. The solution was pored into 1 ml of methanol to precipitate crystals. The mixture was stirred at 30 to 35° C. for 20 hours. Then, an ethyl acetate/water mixture was added to dissolve the crystals, and the solution was subjected to extraction. The organic layer was dried over sodium sulfate. The resulting solution was filtered, and the filtrate was concentrated under reduced pressure.
# For example, thin-layer chromatography of the obtained product (conditions: Merk Pre-Coated TLC Plates SILICA GEL 60F254 (Merk); benzene/ethyl acetate=4/1) developed color in zones corresponding to 7-phenylacetamide-3-chloromethyl-cephem-4-carboxylic acid p-methoxybenzyl ester (Compound (1a)) (Rf=0.46), 7-phenylacetamide-3-methoxymethyl-cephem-4-carboxylic acid p-methoxybenzyl ester (Compound A) (Rf=0.33) and decomposition product of Compound (1a) (Rf≈0, in the vicinity of the placing point). […]
# [1] = dimethylformamide solution poured into uncooled methanol, stirred at 30 to 35° C. for 20 hours
compound,measurement,setting,value
"COc1ccc(COC(=O)C2=C(CCl)CS[C@@H]3C(NC(=O)Cc4ccccc4)C(=O)N23)cc1 (stereo partly drawn) [Compound (1a), 7-phenylacetamido-3-chloromethyl-cephem-4-carboxylic acid p-methoxybenzyl ester]",7-phenylacetamido-3-chloromethyl-cephem-4-carboxylic acid p-methoxybenzyl ester recovered (yield),"dimethylformamide solution poured into methanol precooled to 3° C., stirred at 3 to 5° C. for 20 hours",99%
same,Compound (1a) recovered (yield),[1],71%
same,highly polar component Compound A formed (yield),[1],9%
